Experimental data reported in PubChem BioAssay AID2060899 (Molecular Pharmacology Branch, DTP, NCI, 2025).
pIC50: −log10 of the molar value.

Test system: 565726-208-R1-J5-PDC complex spheroids, growth inhibition
Assay: Anticancer human tumor 565726-208-R1-J5-PDC patient-derived pancreatic adenocarcinoma cell line growth inhibition [RAS]
Details: for viability, T/C: stronger effect = lower value
Text: RAS pathway inhibitors in Combinations in Complex Spheroids
A high-throughput screen of multi-cell type tumor spheroids was designed to identify active combinations of RAS pathway inhibitors and targeted small molecules. Complex spheroids include a stromal component modeled by human endothelial cells (HUVEC) and fibroblasts modeled by human mesenchymal stem cells (MSCs). The concentration ranges selected for each drug and investigational agent were based upon clinically achievable concentrations if the clinical Cmax of the agent was known.
Compounds. The drugs and investigational agents: abemaciclib (NSC768073), cobimetinib (NSC768068), divarasib (GDC6063, NSC841802), docetaxel (NSC628503), GDC-1971 (RLY-1971, NSC841576), gemcitabine (NSC613327), inavolisib (NSC800729), ipatasertib (NSC767898), KB-0742 (NSC834161), MRTX-1133 (NSC836407), osimertinib (NSC779217), RMC-4630 (NSC839698), RMC-6236 (NSC851965), RMC-6291 (NSC852671), Ro-3306 (NSC812927), sapanisertib (NSC764658), SN-38 (NSC673596), staurosporine (NSC755774), SY5609 (NSC837396), and tovorafenib (DAY101, NSC766906), were obtained from the National Cancer Institute (NCI) Developmental Therapeutics Program Chemical Repository. The FDA-approved anticancer drug set is available from the NCI Developmental Therapeutics Program. […] The stock solutions were prepared in dimethyl sulfoxide (DMSO, Sigma-Aldrich, St. Louis, MO, cat. D2650) at 800-fold the tested concentration and stored at -70 degrees C prior to their use. All drugs and investigational agents were tested over a range starting from a high concentration at or near the clinical Cmax and decreasing in half-log increments. If the clinical Cmax for an agent had not been determined, the highest concentration tested was 10 microM.
Cell Culture. All cells were maintained in an incubator at 37 degrees C and 5% CO2 with 95% humidity. The PDC lines were cultured according to standard operating procedures established by the NCI PDMR. All PDCs were thawed and cultured in Matrigel-coated flasks prepared with a working solution of 1X Ham's F-12 nutrient mix, without supplementation (Invitrogen, Waltham, MA, cat. 11765054), 100 U/mL penicillin-streptomycin (Invitrogen, cat. 15140122), and 2.5% Matrigel (Corning Inc., Corning, NY, cat. 354248) for the first three passages. The 362531-283-R-J2-PDC and 782815-120-R-J1-PDC lines were cultured in 6C/Colon 1B media, which includes advanced DMEM/F-12 (Thermo Fisher Scientific, cat. 12634028), 10 mM HEPES (Thermo Fisher Scientific, cat. 15630080), 1X GlutaMAX supplement (Thermo Fisher Scientific, cat. 35050061), 0.1 mg/mL primocin (InvivoGen, San Diego, CA, cat. ant-pm-2), 10% defined fetal bovine serum, heat inactivated (HyClone Laboratories Inc., Logan, UT, cat. SH30070.03HI), 50% L-WRN conditioned media (ATCC, cat. CRL-3276), 1.25 mM N-Acetyl-L-cysteine (Sigma-Aldrich, cat. A9165), 10 mM nicotinamide (Sigma-Aldrich, cat. N0636), 1X B-27 supplement (Thermo Fisher Scientific, cat. 17504044), 1X N-2 supplement (Thermo Fisher Scientific, cat. 17502048), 50 ng/mL human EGF (Thermo Fisher Scientific, cat. PHG0311), and 10 microM Y-27632 dihydrochloride (Tocris Bioscience, cat. 1254). The K12877-001-R-J1-PDC line was cultured in 6I media, which includes all 6C/Colon 1B media plus 10 ng/mL human FGF-10 (PeproTech, cat. 100-26), 1 ng/mL human FGF-2 (PeproTech, cat. 100-18B), 1 µM prostaglandin E2 (Tocris Bioscience, cat. 2296), […] hydrocortisone (Sigma-Aldrich, cat. H4001), and […] bovine insulin (Sigma-Aldrich, cat. I6634). The K86415-001-R-J1-PDC line was cultured in 6D media, which includes all 6C/Colon 1B media components minus the L-WRN conditioned media. The 485176-168-R4-J1-PDC was cultured in PANC media, which includes all 6C/Colon 1B media plus 100 ng/mL human FGF-10 (PeproTech, cat. 100-26), 500 nM SB-431542 (Selleckchem, cat. S1067), and 10 nM gastrin (Tocris Bioscience, cat. 3006). […]
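Also: spheroids exposed to compounds for seven days before readout.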
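For viability, T/C in this document: 100% = DMSO vehicle control viability.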

With `Cc1nc(N2CCC3(CC2)COC(C)C3N)c(CO)nc1Sc1ccnc(N)c1Cl` (stereo not given) the viability, T/C (compound 0.0316 µM) was 106% [middle of 4 runs], the viability, T/C (compound 0.316 µM) was 85.7% [middle of 4 runs] and the viability, T/C (compound 1 µM) was 81.1% [middle of 4 runs]. For the same molecule, the pIC50 (curve of compound) was under 5.00.
For `NC1c2ccccc2OC12CCN(c1cnc3c(N4CCCc5ncccc54)n[nH]c3n1)CC2` (stereo not given), the viability, T/C (compound 0.0316 µM) was 82.2% [middle of 4 runs], the viability, T/C (compound 0.316 µM) was 72.5% [middle of 4 runs] and the viability, T/C (compound 1 µM) was 66% [middle of 4 runs]. The pIC50 (curve of compound) was under 5.00.
Molecule `CC(=O)OC12COC1CC(O)C1(C)C(=O)C(O)C3=C(C)C(OC(=O)C(O)C(NC(=O)OC(C)(C)C)c4ccccc4)CC(O)(C(OC(=O)c4ccccc4)C21)C3(C)C` (stereo not given) + CCn1c(-c2cc(N3CCN(C)CC3)cnc2C(C)OC)c2c3cc(ccc31)-c1csc(n1)CC(NC(=O)C1CC1C)C(=O)N1CCCC(N1)C(=O)OCC(C)(C)C2 has a pIC50 (curve of first compound, second compound 0.000949 µM) of over 7.50, a pIC50 (curve of first compound, second compound 0.003 µM) of over 7.50 and a pIC50 (curve of first compound, second compound 0.00949 µM) of over 7.50. It also gave a pIC50 (curve of first compound, second compound 0.03 µM) of over 7.50, a pIC50 (curve of first compound, second compound 0.0949 µM) of over 7.50 and a pIC50 (curve of first compound, second compound 0.3 µM) of over 7.50. For the same molecule, the viability, T/C (second compound 0.000949 µM, first compound 0.0316 µM) was 20.3%, the viability, T/C (second compound 0.000949 µM, first compound 0.1 µM) was 17% and the viability, T/C (second compound 0.000949 µM, first compound 0.316 µM) was 19.2%. The viability, T/C (second compound 0.000949 µM, first compound 1 µM) was 17.7%, the viability, T/C (second compound 0.000949 µM, first compound 3.16 µM) was 20.2% and the viability, T/C (second compound 0.000949 µM, first compound 10 µM) was 20.8%. The viability, T/C (second compound 0.003 µM, first compound 0.0316 µM) was 20.4%, the viability, T/C (second compound 0.003 µM, first compound 0.1 µM) was 17.7% and the viability, T/C (second compound 0.003 µM, first compound 0.316 µM) was 17.2%. For the same molecule, the viability, T/C (second compound 0.003 µM, first compound 1 µM) was 15.5%, the viability, T/C (second compound 0.003 µM, first compound 3.16 µM) was 18.7% and the viability, T/C (second compound 0.003 µM, first compound 10 µM) was 18.4%. The viability, T/C (second compound 0.00949 µM, first compound 0.0316 µM) was 17.9%, the viability, T/C (second compound 0.00949 µM, first compound 0.1 µM) was 17.1% and the viability, T/C (second compound 0.00949 µM, first compound 0.316 µM) was 14.7%. For the same molecule, the viability, T/C (second compound 0.00949 µM, first compound 1 µM) was 16%, the viability, T/C (second compound 0.00949 µM, first compound 3.16 µM) was 17.6% and the viability, T/C (second compound 0.00949 µM, first compound 10 µM) was 15.2%. For the same molecule, the viability, T/C (second compound 0.03 µM, first compound 0.0316 µM) was 14.5%, the viability, T/C (second compound 0.03 µM, first compound 0.1 µM) was 13.7% and the viability, T/C (second compound 0.03 µM, first compound 0.316 µM) was 11.5%. The viability, T/C (second compound 0.03 µM, first compound 1 µM) was 14.5%, the viability, T/C (second compound 0.03 µM, first compound 3.16 µM) was 13.7% and the viability, T/C (second compound 0.03 µM, first compound 10 µM) was 13.6%. It also gave a viability, T/C (second compound 0.0949 µM, first compound 0.0316 µM) of 11.7%, a viability, T/C (second compound 0.0949 µM, first compound 0.1 µM) of 13% and a viability, T/C (second compound 0.0949 µM, first compound 0.316 µM) of 14.6%. The viability, T/C (second compound 0.0949 µM, first compound 1 µM) was 12.5%, the viability, T/C (second compound 0.0949 µM, first compound 3.16 µM) was 14.1% and the viability, T/C (second compound 0.0949 µM, first compound 10 µM) was 11.3%. The viability, T/C (second compound 0.3 µM, first compound 0.0316 µM) was 10.4%, the viability, T/C (second compound 0.3 µM, first compound 0.1 µM) was 10.5% and the viability, T/C (second compound 0.3 µM, first compound 0.316 µM) was 11.4%. It also gave a viability, T/C (second compound 0.3 µM, first compound 1 µM) of 11.3%, a viability, T/C (second compound 0.3 µM, first compound 3.16 µM) of 12% and a viability, T/C (second compound 0.3 µM, first compound 10 µM) of 10.4%.
